# Data as given in PubChem BioAssay AID1963862 (Molecular Pharmacology Branch, DTP, NCI, 2024).
# System: KRAS patient-derived spheroids with HUVEC/MSC, viability
# Experiment: Anticancer human tumor 941728-121-R-J1-PDC patient-derived lung adenocarcinoma cell line growth inhibition [KRAS2]
# Settings: for IC50: curve of first compound; for viability, T/C: stronger effect = lower value
# Method in brief: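 KRAS-mutant tumor cells were grown as spheroids with HUVEC endothelial cells and human MSCs as stroma. Targeted agents were tested alone and with KRAS pathway inhibitors. Doses started at or near clinical Cmax, or 10 microM, descending half-log.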
# [1] = second compound 0.1 µM, first compound 0.0316 µM
# [2] = second compound 0.1 µM, first compound 0.1 µM
# [3] = second compound 0.1 µM, first compound 0.316 µM
# [4] = second compound 0.1 µM, first compound 1 µM
# [5] = second compound 0.1 µM, first compound 3.16 µM
# [6] = second compound 0.1 µM, first compound 10 µM
# [7] = second compound 0.316 µM, first compound 0.0316 µM
# [8] = second compound 0.316 µM, first compound 0.1 µM
# [9] = second compound 0.316 µM, first compound 0.316 µM
# [10] = second compound 0.316 µM, first compound 1 µM
# [11] = second compound 0.316 µM, first compound 3.16 µM
# [12] = second compound 0.316 µM, first compound 10 µM
# [13] = second compound 1 µM, first compound 0.0316 µM
# [14] = second compound 1 µM, first compound 0.1 µM
# [15] = second compound 1 µM, first compound 0.316 µM
# [16] = second compound 1 µM, first compound 1 µM
# [17] = second compound 1 µM, first compound 3.16 µM
# [18] = second compound 1 µM, first compound 10 µM
# [19] = second compound 3.16 µM, first compound 0.0316 µM
# [20] = second compound 3.16 µM, first compound 0.1 µM
# [21] = second compound 3.16 µM, first compound 0.316 µM
# [22] = second compound 3.16 µM, first compound 1 µM
# [23] = second compound 3.16 µM, first compound 3.16 µM
# [24] = second compound 3.16 µM, first compound 10 µM
# [25] = second compound 10 µM, first compound 0.0316 µM
# [26] = second compound 10 µM, first compound 0.1 µM
# [27] = second compound 10 µM, first compound 0.316 µM
# [28] = second compound 10 µM, first compound 1 µM
# [29] = second compound 10 µM, first compound 3.16 µM
# [30] = second compound 10 µM, first compound 10 µM
# 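Further: spheroids exposed to agents for seven days before readout.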
smiles,measurement,setting,value
COc1cc(Nc2ncc3c(n2)-c2ccc(Cl)cc2C(c2c(F)cccc2OC)=NC3)ccc1C(=O)O + CC1OCC2(CCN(c3cnc(Sc4ccnc(N)c4Cl)c(N)n3)CC2)C1N,IC50,second compound 0.1 µM,137 nM
same,IC50,second compound 0.316 µM,< 31.6 nM
same,IC50,second compound 1 µM,< 31.6 nM
same,IC50,second compound 3.16 µM,< 31.6 nM
same,IC50,second compound 10 µM,< 31.6 nM
same,"viability, T/C",[1],53.1%
same,"viability, T/C",[2],47.6%
same,"viability, T/C",[3],48.5%
same,"viability, T/C",[4],48.5%
same,"viability, T/C",[5],50.3%
same,"viability, T/C",[6],41.6%
same,"viability, T/C",[7],42.3%
same,"viability, T/C",[8],41.9%
same,"viability, T/C",[9],40.2%
same,"viability, T/C",[10],39.2%
same,"viability, T/C",[11],36.6%
same,"viability, T/C",[12],35.3%
same,"viability, T/C",[13],29.8%
same,"viability, T/C",[14],33.4%
same,"viability, T/C",[15],36.6%
same,"viability, T/C",[16],34.6%
same,"viability, T/C",[17],28%
same,"viability, T/C",[18],23.9%
same,"viability, T/C",[19],23.7%
same,"viability, T/C",[20],25.4%
same,"viability, T/C",[21],26.9%
same,"viability, T/C",[22],26.6%
same,"viability, T/C",[23],13%
same,"viability, T/C",[24],14.5%
same,"viability, T/C",[25],16%
same,"viability, T/C",[26],15.4%
same,"viability, T/C",[27],13.4%
same,"viability, T/C",[28],13.6%
same,"viability, T/C",[29],12.4%
same,"viability, T/C",[30],9.18%
O=C(c1cc(Cc2n[nH]c(=O)c3ccccc23)ccc1F)N1CCN(C(=O)C2CC2)CC1 + C=CC(=O)N1CCN(c2nc(OCC3CCCN3C)nc3c2CCN(c2cccc4cccc(C)c24)C3)CC1CC#N,IC50,second compound 0.0316 µM,< 31.6 nM
same,IC50,second compound 0.1 µM,< 31.6 nM
same,IC50,second compound 0.316 µM,< 31.6 nM
same,IC50,second compound 1 µM,< 31.6 nM
same,IC50,second compound 3.16 µM,< 31.6 nM
same,"viability, T/C","second compound 0.0316 µM, first compound 0.0316 µM",36.5%
same,"viability, T/C","second compound 0.0316 µM, first compound 0.1 µM",36.5%
same,"viability, T/C","second compound 0.0316 µM, first compound 0.316 µM",59.6%
same,"viability, T/C","second compound 0.0316 µM, first compound 1 µM",29.1%
same,"viability, T/C","second compound 0.0316 µM, first compound 3.16 µM",26.9%
same,"viability, T/C","second compound 0.0316 µM, first compound 10 µM",36.2%
same,"viability, T/C",[1],32.3%
same,"viability, T/C",[2],33.3%
same,"viability, T/C",[3],30.5%
same,"viability, T/C",[4],32.5%
same,"viability, T/C",[5],30.6%
same,"viability, T/C",[6],35.4%
same,"viability, T/C",[7],36.1%
same,"viability, T/C",[8],33.7%
same,"viability, T/C",[9],33.3%
same,"viability, T/C",[10],33.7%
same,"viability, T/C",[11],33.9%
same,"viability, T/C",[12],34.2%
same,"viability, T/C",[13],32.6%
same,"viability, T/C",[14],36.2%
same,"viability, T/C",[15],35.2%
same,"viability, T/C",[16],32.8%
same,"viability, T/C",[17],32%
same,"viability, T/C",[18],35.7%
same,"viability, T/C",[19],0.38%
same,"viability, T/C",[20],4.45%
same,"viability, T/C",[21],1.13%
same,"viability, T/C",[22],0.34%
same,"viability, T/C",[23],0.38%
same,"viability, T/C",[24],0.53%
CN(C)C/C=C/C(=O)Nc1cc2c(Nc3ccc(F)c(Cl)c3)ncnc2cc1O[C@H]1CCOC1 + C=CC(=O)N1CCN(c2nc(=O)n(-c3c(C)ccnc3C(C)C)c3nc(-c4c(O)cccc4F)c(F)cc23)C(C)C1,IC50,second compound 0.1 µM,< 0.316 nM
same,IC50,second compound 0.316 µM,< 0.316 nM
same,IC50,second compound 1 µM,< 0.316 nM
same,IC50,second compound 3.16 µM,< 0.316 nM
same,IC50,second compound 10 µM,< 0.316 nM
same,"viability, T/C","second compound 0.1 µM, first compound 0.000316 µM",18.1%
same,"viability, T/C","second compound 0.1 µM, first compound 0.001 µM",17.1%
same,"viability, T/C","second compound 0.1 µM, first compound 0.00316 µM",16.2%
same,"viability, T/C","second compound 0.1 µM, first compound 0.01 µM",15.5%
same,"viability, T/C",[1],15.9%
same,"viability, T/C",[2],14.3%
same,"viability, T/C","second compound 0.316 µM, first compound 0.000316 µM",17%
same,"viability, T/C","second compound 0.316 µM, first compound 0.001 µM",17.6%
same,"viability, T/C","second compound 0.316 µM, first compound 0.00316 µM",15.6%
same,"viability, T/C","second compound 0.316 µM, first compound 0.01 µM",15.3%
same,"viability, T/C",[7],16.7%
same,"viability, T/C",[8],16.4%
same,"viability, T/C","second compound 1 µM, first compound 0.000316 µM",20.6%
same,"viability, T/C","second compound 1 µM, first compound 0.001 µM",19.9%
same,"viability, T/C","second compound 1 µM, first compound 0.00316 µM",18.1%
same,"viability, T/C","second compound 1 µM, first compound 0.01 µM",15.7%
same,"viability, T/C",[13],16.5%
same,"viability, T/C",[14],15.9%
same,"viability, T/C","second compound 3.16 µM, first compound 0.000316 µM",21.5%
same,"viability, T/C","second compound 3.16 µM, first compound 0.001 µM",20.9%
same,"viability, T/C","second compound 3.16 µM, first compound 0.00316 µM",19.4%
same,"viability, T/C","second compound 3.16 µM, first compound 0.01 µM",17.9%
same,"viability, T/C",[19],18.9%
same,"viability, T/C",[20],17.3%
same,"viability, T/C","second compound 10 µM, first compound 0.000316 µM",26.3%
same,"viability, T/C","second compound 10 µM, first compound 0.001 µM",22.5%
same,"viability, T/C","second compound 10 µM, first compound 0.00316 µM",23.6%
same,"viability, T/C","second compound 10 µM, first compound 0.01 µM",17.7%
same,"viability, T/C",[25],20.7%
same,"viability, T/C",[26],19%
COc1cc(Nc2ncc3c(n2)-c2ccc(Cl)cc2C(c2c(F)cccc2OC)=NC3)ccc1C(=O)O + C=CC(=O)N1CCN(c2nc(=O)n(-c3c(C)ccnc3C(C)C)c3nc(-c4c(O)cccc4F)c(F)cc23)C(C)C1,IC50,second compound 0.1 µM,< 31.6 nM
same,IC50,second compound 0.316 µM,< 31.6 nM
same,IC50,second compound 1 µM,< 31.6 nM
same,IC50,second compound 3.16 µM,< 31.6 nM
same,IC50,second compound 10 µM,< 31.6 nM
same,"viability, T/C",[1],24.9%
same,"viability, T/C",[2],17.2%
same,"viability, T/C",[3],16%
same,"viability, T/C",[4],22.7%
same,"viability, T/C",[5],25.7%
same,"viability, T/C",[6],17.3%
same,"viability, T/C",[7],29.3%
same,"viability, T/C",[8],26.2%
same,"viability, T/C",[9],26.3%
same,"viability, T/C",[10],25.5%
same,"viability, T/C",[11],24.4%
same,"viability, T/C",[12],16.7%
same,"viability, T/C",[13],17.9%
same,"viability, T/C",[14],27.4%
same,"viability, T/C",[15],31%
same,"viability, T/C",[16],26.4%
same,"viability, T/C",[17],24.1%
same,"viability, T/C",[18],21%
same,"viability, T/C",[19],25.5%
same,"viability, T/C",[20],29.6%
same,"viability, T/C",[21],31.5%
same,"viability, T/C",[22],29%
same,"viability, T/C",[23],25.7%
same,"viability, T/C",[24],22.4%
same,"viability, T/C",[25],37%
same,"viability, T/C",[26],38.5%
same,"viability, T/C",[27],35.2%
same,"viability, T/C",[28],32%
same,"viability, T/C",[29],28.1%
same,"viability, T/C",[30],25.8%
